Common to all, as to assay type: cell-based
In data set [1] the test system is K562 (chronic myelogenous leukaemia). Briefly: Cytotoxicity assay, K562 tumor cells. Particulars: Homo sapiens, 96 hours treatment. The protocol:
(§1) The effect of the compounds of the invention on tumor cells was determined by the assay described by Latham et al., Oncogene 12:827-837 (1996). Tumor cells K562 (chronic myelogenous leukaemia) or DU145 (prostate cancer) were plated in 12-well dishes at a cell density of 2.5×10^4 cells well. The plated cells were treated 24 hours later with a compound of the invention dissolved in DMSO at multiple concentrations ranging from 0.001 to 10 μM. The plates were examined 96 hours later under an inverted microscope, Olympus CK-2 using a 10× objective, and compound activity was noted by physical observation. When necessary, the total number of viable cells was determined by trypsinizing the wells and counting the number of viable cells, as determined by trypan blue exclusion, using a hemacytometer.

For data set [2], the system named is DU145 (prostate cancer). Put plainly: Cytotoxicity assay, DU145 tumor cells. Particulars: Homo sapiens, DU-145, 96 hours treatment. The protocol:
as §1

Data set [3] relates to tumor cell lines. Put plainly: Cytotoxicity assay, comparison across the cell lines listed in Table 18. Particulars: across a wide range of tumor cell lines. Here is the method:
Cells of the cell lines listed in Table 18 (1×10^5) were plated into 6-well dishes. Twenty-four hours later, the compound of Example 1, i.e., (Z)-ethyl 3-((2-methoxy-5-(((E)-2,4,6-trimethoxystyrylsulfonyl)methyl) phenyl)amino)acrylate, or the compound of Comparative Example 1, i.e., sodium (E)-2-(5-((2,4,6-trimethoxystyrylsulfonyl)methyl)-2-methoxyphenylamino) acetate (rigosertib) was added at different concentrations over a 4 log dilution (0.001 to 10 μM). The total number of viable cells was determined after 96 hours of continuous treatment by staining with trypan blue and counting the number of non-staining cells (viable) remaining in each well using a hemacytometer. The percentage of viable cells remaining was calculated as follows: # viable cells (compound treated)/# viable cells (DMSO treated)*100. The GI50 (the concentration of drug resulting in 50% net loss of growth inhibition) was determined.

Consider `COc1cc(OC)c(/C=C/S(=O)(=O)Cc2ccc(OC)c(NC(=O)/C=C/C(=O)O)c2)c(OC)c1` [Ex. 186, (E)-4-((2-methoxy-5-(((E)-2,4,6-trimethoxystyrylsulfonyl)methyl)phenyl)amino)-4-oxobut-2-enoic acid], for which the IC50 in data set [1] and in data set [2] was 2 µM each time.

For the compound `COC(=O)/C=C\Nc1cc(CS(=O)(=O)/C=C/c2c(OC)cc(OC)cc2OC)ccc1OC` [Ex. 3, (Z)-methyl 3-((2-methoxy-5-(((E)-2,4,6-trimethoxystyrylsulfonyl)methyl)phenyl)amino) acrylate], the IC50 in data set [1] and in data set [2] was 0.004 µM in each case.

On to `CCOC(=O)/C=C\Nc1cc(CS(=O)(=O)/C=C/c2c(OC)cc(OC)cc2OC)ccc1OC` [(Z)-ethyl 3-((2-methoxy-5-(((E)-2,4,6-trimethoxystyrylsulfonyl)methyl)phenyl)amino)acrylate], for which, in data set [3], the “fold more cytotoxic than Rigosertib” value is 10-100 fold.

As usually defined, the IC50 is the concentration that gives 50% inhibition. Read a high IC50 as a need for much substance.

(Values after patent publication US10383831B2, “2,4,6-trialkoxystryl aryl sulfones, sulfonamides and carboxamides, and methods of preparation and use” (Temple University—Of The Commonwealth System Of Higher …, priority 2015, dated 2019).)
